Assay results: US4758421A (priority 1985, dated 1988)

Tests used:
[1] = system: Chinese hamster ovary (CHO) cells; experiment: CHO cell survival after 60 minutes exposure (FIG. 4); format: cell-based
Experimental: Chinese hamster ovary (CHO) cells were cultured in standard cell-culture medium, under log phase growth conditions. Increasing concentrations of either BL--Co--S--FeEDTA or FeEDTA were added to each of two groups of cells. The cells were incubated for 60 minutes at 37° C., and the percent cell survivors was determined conventionally by serial dilution in microtitre plates.

[2] = system: CHA255; experiment: Binding constants with monoclonal antibody CHA255 by equilibrium dialysis; design: species or system mice; conditions: specificity of antibody for the antibody-inducing antigen
Experimental: (§1) Monoclonal antibodies against L--benzyl--EDTA--In were prepared in cooperation with Hybritech, Inc., 11085 Toneyana Road, San Diego, Calif. 92121. Briefly, an L--benzyl--EDTA--In isothiocyanate reagent was reacted with keyhole limpet hemocyanin, which was used to immunize mice. Splenocytes derived from the immunized mice were fused with a suitable tumor cell line, using known somatic cell hybridization techniques. Promising clones were grown in mouse ascites fluid, and the antibodies obtained were purified by ion-exchange chromatography. Two antibodies against L--benzyl--EDTA--In, designated CHA255 and CHB235, were selected.
(§2) The binding constants of the two monoclonal antibodies with L--benzyl--EDTA chelates of several different metals were determined by equilibrium dialysis. The measured binding constants were shown in Table II below, with standard deviations indicated in parentheses.
(§3) Table III gives binding constant data from a second binding affinity study, involving different In--EDTA and In--HED3A chelates.

[3] = system: CHB235; experiment: Binding constants with monoclonal antibody CHB235 by equilibrium dialysis; design: species or system mice; conditions: specificity of antibody for the antibody-inducing antigen
Experimental: as §1, §2, §3

| Molecule | cell toxicity [1] | binding constant greater than for non-antigen metal chelates [2] | binding constant greater than for non-antigen metal chelates [3] |
| --- | --- | --- | --- |
| O=C([O-])CN(CCN(CC(=O)[O-])CC(=O)[O-])CC(=O)[O-].[Fe+3] [FeEDTA] | relatively non-toxic | – | – |
| L--benzyl--EDTA--In [In (III)] | – | 1 to 4 orders of magnitude | 1 to 4 orders of magnitude |
